In data set [1] the target is T1, Melatonin receptor type 1B (Homo sapiens, UniProt P49286).
T1 sequence (P49286 whole entry): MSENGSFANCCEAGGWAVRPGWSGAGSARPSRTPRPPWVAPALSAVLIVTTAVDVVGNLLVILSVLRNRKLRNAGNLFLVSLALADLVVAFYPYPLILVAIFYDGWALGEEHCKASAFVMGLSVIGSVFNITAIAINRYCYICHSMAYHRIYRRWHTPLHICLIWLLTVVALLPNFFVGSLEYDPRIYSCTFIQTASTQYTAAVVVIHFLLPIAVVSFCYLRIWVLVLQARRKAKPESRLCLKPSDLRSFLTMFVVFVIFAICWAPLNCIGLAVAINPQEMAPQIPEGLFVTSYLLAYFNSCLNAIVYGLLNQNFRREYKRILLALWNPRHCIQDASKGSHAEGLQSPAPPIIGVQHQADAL
In words: Inhibition of 2-[125I]iodomelatonin binding to membrane preparations of NIH3T3 cells stably expressing human Melatonin receptor type 1B. The format is cell membranes.

Data set [2] addresses T2, Melatonin receptor type 1A (Homo sapiens, UniProt P48039). In words: Inhibition of 2-[125I]iodomelatonin binding to membrane preparations of NIH3T3 cells stably expressing human Melatonin receptor type 1A. The format is cell membranes.
A short description of data set [3]: Bioavailability in rat (dose 1 mg/kg p.o.). Type of data set: ADME, organism-based. To be noted: in vivo, po.
Data set [4] has as its target T2, Melatonin receptor type 1A. Briefly: Intrinsic activity towards human Melatonin receptor type 1A relative to melatonin.
Data set [5] concerns the target T2, Melatonin receptor type 1A. Briefly: Agonist activity towards human Melatonin receptor type 1A was determined by its ability to inhibit forskolin stimulated cAMP accumulation. Type of data set: functional. Background: Changes in cAMP serve as a functional read-out for many G protein-coupled receptors.
The target in data set [6] is T1, Melatonin receptor type 1B. In words: Agonist activity towards human Melatonin receptor type 1B was determined by its ability to inhibit forskolin stimulated cAMP accumulation. The format is functional.
Data set [7] in a line: Half-life in rats after the administration of 1 mg/kg i.v. dose. The arrangement: dose 1 mg/kg, route intravenous. Type of data set: ADME, organism-based. To be noted: rat, in vivo, iv.
Data set [8] is described as follows: Clearance in rats after the administration of 1 mg/kg i.v. dose. The arrangement: dose 1 mg/kg, route intravenous. To be noted: rat, in vivo, iv. The format is ADME, organism-based.
Data set [9] can be described thus: Volume of distribution in rats after the administration of 1 mg/kg i.v. dose. To be noted: rat, in vivo, iv. The format is ADME, organism-based. More on the design: dose 1 mg/kg, route intravenous.

SMILES strings stand for the structures.

T2 sequence (P48039 whole entry): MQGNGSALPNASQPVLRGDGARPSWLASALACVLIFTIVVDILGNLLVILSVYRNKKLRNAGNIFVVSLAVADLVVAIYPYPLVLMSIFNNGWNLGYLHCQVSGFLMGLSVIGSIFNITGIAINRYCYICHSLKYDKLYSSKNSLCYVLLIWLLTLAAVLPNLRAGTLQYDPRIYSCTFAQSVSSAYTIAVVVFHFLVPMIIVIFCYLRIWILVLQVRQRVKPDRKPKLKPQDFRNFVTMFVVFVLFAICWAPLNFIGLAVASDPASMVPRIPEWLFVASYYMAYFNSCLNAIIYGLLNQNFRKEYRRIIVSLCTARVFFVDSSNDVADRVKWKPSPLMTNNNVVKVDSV

For `CCC(=O)NC[C@@H]1CC1c1cccc2oc(CCCCc3ccccc3)cc12` (some centres undefined), the Ki came to 2.8 nM in [1] and 2.1 nM in data set [2].

`COc1ccc2[nH]cc(CCNC(C)=O)c2c1` [MELATONIN] had a bioavailability in data set [3] of 24%.

Turning to `CCC(=O)N[C@H]1CCN(c2cccc3oc(CCCCc4ccccc4)cc23)C1`, the Ki in [1] stood at 6 nM; in data set [2] it was 2.4 nM.

Regarding `CCCC(=O)NCCCc1cccc2oc(CCCCc3ccccc3)cc12`, the inhibitory constant (Ki) in data set [1] came out at 82 nM; in [2], 16 nM.

For `CCNC(=O)NCCCc1cccc2oc(CCCCc3ccccc3)cc12`, the Ki in data set [1] worked out at 52 nM; in data set [2], 21 nM.

On to `O=C(N[C@H]1CCN(c2cccc3oc(CCCCc4ccccc4)cc23)C1)C1CC1`, for which the inhibition constant Ki worked out at 152 nM in data set [1] and 42 nM in [2].

With `CCCC(=O)N[C@H]1CCN(c2cccc3oc(CCCCc4ccccc4)cc23)C1`, the figures for the Ki in [1] and in data set [2] were 7.2 nM and 11 nM, respectively.

For the molecule `O=C(NC[C@@H]1CC1c1cccc2oc(CCCCc3ccccc3)cc12)C1CC1` (some centres undefined), the Ki in data set [1] is 33 nM; in data set [2] it was 16 nM.

For the molecule `CC(=O)NC[C@@H]1CC1c1cccc2oc(CCCCc3ccccc3)cc12` (some centres undefined), the inhibition constant (Ki) in [1] was determined as 10 nM; in [2], 2.6 nM. In data set [4], this molecule came in with an Activity of 0.97. For the same molecule, the figures for the EC50 in data set [5] and in [6] were 0.6 nM and 21 nM, respectively. The same molecule showed a half-life in data set [7] of 3.8 h. In addition, the clearance in [8] came to 27.5 mL/min/kg. Also, the bioavailability in data set [3] was determined as 90%. The distribution volume (Vd) in data set [9] was 0.557 L/kg.

In the case of `CC(C)C(=O)NC[C@@H]1CC1c1cccc2oc(CCCCc3ccccc3)cc12` (some centres undefined), the Ki in data set [1] was determined as 54 nM; in data set [2], 23 nM.

As for `CCCC(=O)NC[C@@H]1CC1c1cccc2oc(CCCCc3ccccc3)cc12` (some centres undefined), the inhibition constant (Ki) in data set [1] and in data set [2] was 10 nM each time.

Regarding `CC(=O)N[C@H]1CCN(c2cccc3oc(CCCCc4ccccc4)cc23)C1`, the Ki in [1] came out at 14 nM; in data set [2], 22 nM.

`CCNC(=O)N[C@H]1CCN(c2cccc3oc(CCCCc4ccccc4)cc23)C1`: the inhibitory constant (Ki) was 98 nM in data set [1] and 39 nM in data set [2].

Turning to `O=C(NCCCc1cccc2oc(CCCCc3ccccc3)cc12)C1CC1`, the Ki amounted to 95 nM in data set [1] and 6 nM in [2].

For `CCC(=O)NCCCc1cccc2oc(CCCCc3ccccc3)cc12`, the Ki in [1] was found to be 60 nM; in data set [2], 7.5 nM.

Regarding `CC(C)C(=O)NCCCc1cccc2oc(CCCCc3ccccc3)cc12`, the Ki in data set [1] was found to be 83 nM; in data set [2], 3.7 nM.

Consider `CC(=O)NCCCc1cccc2oc(CCCCc3ccccc3)cc12`, for which the Ki in [1] came to 127 nM; in data set [2] it was 19 nM.

Regarding `CC(C)C(=O)N[C@H]1CCN(c2cccc3oc(CCCCc4ccccc4)cc23)C1`, the Ki in data set [1] was 162 nM; in data set [2], 105 nM.

Take `CCNC(=O)NC[C@@H]1C[C@H]1c1cccc2oc(CCCCc3ccccc3)cc12`: the inhibition constant Ki came out at 90 nM in [1] and 33 nM in [2].

A word on the Ki: it is a measure of affinity in units of concentration, obtained from inhibition or displacement. The term bioavailability denotes the share of a dose that reaches the circulation, judged against a reference dose that is usually intravenous. High values mean much systemic uptake, low ones little systemic uptake. One may read the EC50 as the concentration that produces a half-maximal response. Read a high EC50 as weaker potency. A word on the half-life: it is the time in which the quantity being followed falls by half. One may read the clearance as the rate of elimination divided by the concentration. Read a high clearance as a high capacity for elimination. The Vd is a proportionality between amount in the body and measured concentration, not a real space.
